Measured values from the NIST ThermoML archive (doi:10.1016/j.jct.2013.05.014).
± gives the expanded uncertainty stated by the source.

Assays:
[1] = 298.15 K, 101 kPa, Liquid; for viscosity: Capillary tube (Ostwald / Ubbelohde) method; for mass density: Pycnometric method
[2] = xn = mol fraction of the nth substance listed; details: 298.15 K, 101 kPa, Liquid; for viscosity: Capillary tube (Ostwald / Ubbelohde) method; for mass density: Pycnometric method

CCCCCC(C)O (centres undefined) [2-heptanol]
viscosity [1]: 5.08 ± 0.11 mPa·s
mass density [1]: 813.74 ± 1 kg/m3

CCCCCC(C)O (centres undefined) [2-heptanol] + CCCCCCCCCC
viscosity ([2]; x2 = 0): 5.08 ± 0.11 mPa·s
viscosity ([2]; x2 = 0.0552): 4.25 ± 0.089 mPa·s
viscosity ([2]; x2 = 0.0999): 3.732 ± 0.078 mPa·s
viscosity ([2]; x2 = 0.1555): 3.152 ± 0.066 mPa·s
viscosity ([2]; x2 = 0.1999): 2.74 ± 0.057 mPa·s
viscosity ([2]; x2 = 0.2554): 2.283 ± 0.048 mPa·s
viscosity ([2]; x2 = 0.2999): 1.962 ± 0.041 mPa·s
viscosity ([2]; x2 = 0.3554): 1.614 ± 0.034 mPa·s
viscosity ([2]; x2 = 0.3998): 1.375 ± 0.033 mPa·s
viscosity ([2]; x2 = 0.4555): 1.122 ± 0.033 mPa·s
viscosity ([2]; x2 = 0.4998): 0.954 ± 0.032 mPa·s
viscosity ([2]; x2 = 0.5555): 0.782 ± 0.032 mPa·s
viscosity ([2]; x2 = 0.5999): 0.673 ± 0.032 mPa·s
viscosity ([2]; x2 = 0.6554): 0.57 ± 0.032 mPa·s
viscosity ([2]; x2 = 0.6999): 0.51 ± 0.032 mPa·s
viscosity ([2]; x2 = 0.7553): 0.461 ± 0.032 mPa·s
viscosity ([2]; x2 = 0.8): 0.44 ± 0.032 mPa·s
viscosity ([2]; x2 = 0.8555): 0.432 ± 0.032 mPa·s
viscosity ([2]; x2 = 0.8998): 0.438 ± 0.032 mPa·s
viscosity ([2]; x2 = 0.9553): 0.457 ± 0.032 mPa·s
mass density ([2]; x2 = 0): 813.74 ± 1 kg/m3
mass density ([2]; x2 = 0.0552): 806.87 ± 1 kg/m3
mass density ([2]; x2 = 0.0999): 801.55 ± 1 kg/m3
mass density ([2]; x2 = 0.1555): 795.15 ± 1 kg/m3
mass density ([2]; x2 = 0.1999): 790.26 ± 1 kg/m3
mass density ([2]; x2 = 0.2554): 784.36 ± 1 kg/m3
mass density ([2]; x2 = 0.2999): 779.83 ± 1 kg/m3
mass density ([2]; x2 = 0.3554): 774.4 ± 1 kg/m3
mass density ([2]; x2 = 0.3998): 770.24 ± 1 kg/m3
mass density ([2]; x2 = 0.4555): 765.23 ± 1 kg/m3
mass density ([2]; x2 = 0.4998): 761.41 ± 1 kg/m3
mass density ([2]; x2 = 0.5555): 756.8 ± 1 kg/m3
mass density ([2]; x2 = 0.5999): 753.27 ± 1 kg/m3
mass density ([2]; x2 = 0.6554): 749.04 ± 1 kg/m3
mass density ([2]; x2 = 0.6999): 745.79 ± 1 kg/m3
mass density ([2]; x2 = 0.7553): 741.87 ± 1 kg/m3
mass density ([2]; x2 = 0.8): 738.84 ± 1 kg/m3
mass density ([2]; x2 = 0.8555): 735.2 ± 1 kg/m3
mass density ([2]; x2 = 0.8998): 732.39 ± 1 kg/m3
mass density ([2]; x2 = 0.9553): 728.98 ± 1 kg/m3

CCCCC(C)O (centres undefined) [2-hexanol]
viscosity [1]: 4.105 ± 0.085 mPa·s
mass density [1]: 810.84 ± 1 kg/m3

CCCCC(C)O (centres undefined) [2-hexanol] + CCCCCCCCCC
viscosity ([2]; x2 = 0): 4.105 ± 0.085 mPa·s
viscosity ([2]; x2 = 0.0555): 3.569 ± 0.074 mPa·s
viscosity ([2]; x2 = 0.0999): 3.17 ± 0.066 mPa·s
viscosity ([2]; x2 = 0.1554): 2.725 ± 0.057 mPa·s
viscosity ([2]; x2 = 0.1998): 2.41 ± 0.05 mPa·s
viscosity ([2]; x2 = 0.2556): 2.062 ± 0.043 mPa·s
viscosity ([2]; x2 = 0.2999): 1.821 ± 0.038 mPa·s
viscosity ([2]; x2 = 0.3555): 1.561 ± 0.033 mPa·s
viscosity ([2]; x2 = 0.3998): 1.384 ± 0.033 mPa·s
viscosity ([2]; x2 = 0.4554): 1.198 ± 0.033 mPa·s
viscosity ([2]; x2 = 0.4998): 1.076 ± 0.032 mPa·s
viscosity ([2]; x2 = 0.5554): 0.952 ± 0.032 mPa·s
viscosity ([2]; x2 = 0.5997): 0.875 ± 0.032 mPa·s
viscosity ([2]; x2 = 0.6555): 0.802 ± 0.032 mPa·s
viscosity ([2]; x2 = 0.6999): 0.76 ± 0.032 mPa·s
viscosity ([2]; x2 = 0.7555): 0.725 ± 0.032 mPa·s
viscosity ([2]; x2 = 0.7998): 0.708 ± 0.032 mPa·s
viscosity ([2]; x2 = 0.8555): 0.699 ± 0.032 mPa·s
viscosity ([2]; x2 = 0.8999): 0.698 ± 0.032 mPa·s
viscosity ([2]; x2 = 0.9555): 0.703 ± 0.032 mPa·s
mass density ([2]; x2 = 0): 810.84 ± 1 kg/m3
mass density ([2]; x2 = 0.0555): 802.94 ± 1 kg/m3
mass density ([2]; x2 = 0.0999): 797.23 ± 1 kg/m3
mass density ([2]; x2 = 0.1554): 790.5 ± 1 kg/m3
mass density ([2]; x2 = 0.1998): 785.43 ± 1 kg/m3
mass density ([2]; x2 = 0.2556): 779.42 ± 1 kg/m3
mass density ([2]; x2 = 0.2999): 774.91 ± 1 kg/m3
mass density ([2]; x2 = 0.3555): 769.55 ± 1 kg/m3
mass density ([2]; x2 = 0.3998): 765.52 ± 1 kg/m3
mass density ([2]; x2 = 0.4554): 760.72 ± 1 kg/m3
mass density ([2]; x2 = 0.4998): 757.1 ± 1 kg/m3
mass density ([2]; x2 = 0.5554): 752.79 ± 1 kg/m3
mass density ([2]; x2 = 0.5997): 749.54 ± 1 kg/m3
mass density ([2]; x2 = 0.6555): 745.66 ± 1 kg/m3
mass density ([2]; x2 = 0.6999): 742.72 ± 1 kg/m3
mass density ([2]; x2 = 0.7555): 739.25 ± 1 kg/m3
mass density ([2]; x2 = 0.7998): 736.62 ± 1 kg/m3
mass density ([2]; x2 = 0.8555): 733.48 ± 1 kg/m3
mass density ([2]; x2 = 0.8999): 731.11 ± 1 kg/m3
mass density ([2]; x2 = 0.9555): 728.29 ± 1 kg/m3

CCCCCCC(C)O (centres undefined) [2-octanol]
viscosity [1]: 6.429 ± 0.13 mPa·s
mass density [1]: 817.05 ± 1 kg/m3

CCCCCCC(C)O (centres undefined) [2-octanol] + CCCCCCCCCC
viscosity ([2]; x2 = 0): 6.429 ± 0.13 mPa·s
viscosity ([2]; x2 = 0.0554): 5.222 ± 0.11 mPa·s
viscosity ([2]; x2 = 0.0998): 4.638 ± 0.096 mPa·s
viscosity ([2]; x2 = 0.1554): 3.972 ± 0.082 mPa·s
viscosity ([2]; x2 = 0.1999): 3.491 ± 0.072 mPa·s
viscosity ([2]; x2 = 0.2554): 2.951 ± 0.061 mPa·s
viscosity ([2]; x2 = 0.2999): 2.564 ± 0.053 mPa·s
viscosity ([2]; x2 = 0.3555): 2.136 ± 0.044 mPa·s
viscosity ([2]; x2 = 0.3998): 1.836 ± 0.038 mPa·s
viscosity ([2]; x2 = 0.4554): 1.509 ± 0.033 mPa·s
viscosity ([2]; x2 = 0.4999): 1.284 ± 0.033 mPa·s
viscosity ([2]; x2 = 0.5555): 1.046 ± 0.032 mPa·s
viscosity ([2]; x2 = 0.5998): 0.889 ± 0.032 mPa·s
viscosity ([2]; x2 = 0.6555): 0.73 ± 0.032 mPa·s
viscosity ([2]; x2 = 0.7): 0.63 ± 0.032 mPa·s
viscosity ([2]; x2 = 0.7554): 0.538 ± 0.032 mPa·s
viscosity ([2]; x2 = 0.7998): 0.487 ± 0.032 mPa·s
viscosity ([2]; x2 = 0.8554): 0.45 ± 0.032 mPa·s
viscosity ([2]; x2 = 0.8999): 0.438 ± 0.032 mPa·s
viscosity ([2]; x2 = 0.9554): 0.445 ± 0.032 mPa·s
mass density ([2]; x2 = 0): 817.05 ± 1 kg/m3
mass density ([2]; x2 = 0.0554): 810.77 ± 1 kg/m3
mass density ([2]; x2 = 0.0998): 805.83 ± 1 kg/m3
mass density ([2]; x2 = 0.1554): 799.74 ± 1 kg/m3
mass density ([2]; x2 = 0.1999): 794.99 ± 1 kg/m3
mass density ([2]; x2 = 0.2554): 789.2 ± 1 kg/m3
mass density ([2]; x2 = 0.2999): 784.67 ± 1 kg/m3
mass density ([2]; x2 = 0.3555): 779.16 ± 1 kg/m3
mass density ([2]; x2 = 0.3998): 774.9 ± 1 kg/m3
mass density ([2]; x2 = 0.4554): 769.69 ± 1 kg/m3
mass density ([2]; x2 = 0.4999): 765.64 ± 1 kg/m3
mass density ([2]; x2 = 0.5555): 760.74 ± 1 kg/m3
mass density ([2]; x2 = 0.5998): 756.94 ± 1 kg/m3
mass density ([2]; x2 = 0.6555): 752.3 ± 1 kg/m3
mass density ([2]; x2 = 0.7): 748.7 ± 1 kg/m3
mass density ([2]; x2 = 0.7554): 744.32 ± 1 kg/m3
mass density ([2]; x2 = 0.7998): 740.91 ± 1 kg/m3
mass density ([2]; x2 = 0.8554): 736.74 ± 1 kg/m3
mass density ([2]; x2 = 0.8999): 733.47 ± 1 kg/m3
mass density ([2]; x2 = 0.9554): 729.48 ± 1 kg/m3

CCCCCCCCCC [decane]
viscosity [1]: 0.845 ± 0.032 mPa·s
mass density [1]: 726.35 ± 1 kg/m3

CCCCCCCCCC [decane] + CCCCC(C)O
viscosity ([2]; x1 = 1): 0.845 ± 0.032 mPa·s
mass density ([2]; x1 = 1): 726.35 ± 1 kg/m3

CCCCCCCCCC [decane] + CCCCCC(C)O
viscosity ([2]; x1 = 1): 0.845 ± 0.032 mPa·s
mass density ([2]; x1 = 1): 726.35 ± 1 kg/m3

CCCCCCCCCC [decane] + CCCCCCC(C)O
viscosity ([2]; x1 = 1): 0.845 ± 0.032 mPa·s
mass density ([2]; x1 = 1): 726.35 ± 1 kg/m3
